Patent US12514859B2, “Pyrazole pyrimidine derivative and uses thereof” (Yissum Research Development Company of the Hebrew …, priority 2015, dated 2026)

tested on: Wnt/β-catenin; experiment: β-catenin stabilization (Wnt pathway activation) in RKO cells (Western blot); assay type: cell-based; conditions: 16 hours, Western blot
Method: (§1) Primary Screen in RKO cells for compounds having typical CKIα inhibitory activity (β-catenin and p53 stabilization and histone H2AX phosphorylation; see Elyada et al, Nature 2011 Feb. 17; 470(7334):409-13; Pribluda et al, Cancer Cell 2013 Aug. 12; 24(2):242-56). RKO colorectal cells were incubated with 10 μM of each of the compounds for 16 hours at 37° C. Cells were washed with PBS and cell pellets were incubated with ice cold protein lysis buffer containing protease inhibitor cocktail (1/200; Calbiochem) and phosphatase inhibitors (20 mM p-nitrophenyl phosphate (PNPP), 20 mM β-glycerophosphate and 300 nM okadaic acid). Western blot analysis was performed by means of standard techniques. Blots were incubated with antibodies detecting β-catenin (1/2,500; BD Transduction), p53 (DO-1&1801 hybridoma mix; dilution of 1:20 of supernatants from each), CKIα (C-19; 1/1,000; Santa Cruz Biotechnology) and phospho-histoneH2AX (S139; 1/1,000; Millipore). Secondary antibodies were HRP-linked goat anti-mouse, goat anti-rabbit and rabbit anti-goat antibodies (all 1/10,000; Jackson). Blots were developed using ECL (GE Healthcare).
(§2) Active compounds were further analyzed in a dose-response experiment (FIGS. 1A and 1B). Similar to the primary screen, RKO cells were incubated with descending concentrations of each of the active compounds for 16 hours at 37° C. Cell extract isolation and Western Blot analysis were similar to the primary screen.
(§3) Table 1 provides quantified information for compounds of the invention in activation of p53 and DNA damage response (DDR) and β-catenin stabilization as an indicator of Wnt pathway activation. p53 activation was determined according to the degree of protein stabilization in several Western blot assays (Western blot examples are shown in FIGS. 1A and 1B). […] In contrast, A35 started stabilizing p53 at […], with maximal stabilization at […] (FIG. 1A, upper right panel) and thus received an average value of +++ for p53 activation.

SMILES | β-Catenin activity
Cn1ncc(-c2nc(N[C@H]3CC[C@H](NC(=O)c4cn[nH]c4)CC3)ncc2Cl)c1CC1CC1 [Compound A87, N-((1R,4R)-4-((5-chloro-4-(5-(cyclopropylmethyl)-1-methyl-1H-pyrazol-4-yl)pyrimidin-2-yl)amino)cyclohexyl)-1H-pyrazole-4-carboxamide] | +++ (+++ indicates maximal β-catenin or p53 stabilization at >2 μM)
Cn1ncc(-c2ccnc(N[C@H]3CC[C@H](N)CC3)n2)c1CC1CCC1 [Compound A45, (1R, 4R)—N^1-(4-(5-(cyclobutylmethyl)-1-methyl-1H-pyrazol-4-yl)pyrimidin-2-yl)cyclohexane-1,4-diamine] | + (+ indicates low, yet significant activation at a compound concentration of 6 μM)
Cn1ncc(-c2ccnc(N[C@H]3CC[C@H](N(C)C)CC3)n2)c1CC1CC1 [Compound A28, (1r, 4r)-N^1-(4-(5-(cyclopropylmethyl)-1-methyl-1H-pyrazol-4-yl)pyrimidin-2-yl)-N4,N4-dimethylcyclohexane-1,4-diamine] | +++ (+++ indicates maximal β-catenin or p53 stabilization at >2 μM)
Cn1ncc(-c2ccnc(N[C@H]3CC[C@H](N4CCCCC4)CC3)n2)c1CC1CC1 [Compound A47, 4-(5-(cyclopropylmethyl)-1-methyl-1H-pyrazol-4-yl)-N-((1R,4R)-4-(piperidin-1-yl)cyclohexyl)pyrimidin-2-amine] | + (+ indicates low, yet significant activation at a compound concentration of 6 μM)

tested on: p53, DNA damage response (γH2AX); experiment: p53 and DNA damage response activation in RKO cells (Western blot, primary screen and dose response); assay type: cell-based; parameters: p53 stabilization: dose or concentration left out as unconfirmed; conditions: 16 hours, Western blot, average value
Method: as §1, §2, §3

SMILES | DDR & p53 activity
Cn1ncc(-c2nc(NC3CCC(NCc4cccnc4)CC3)ncc2Cl)c1CC1CC1 [Compound A76, (1R,4R)—N^1-(5-chloro-4-(5-(cyclopropylmethyl)-1-methyl-1H-pyrazol-4-yl)pyrimidin-2-yl)-N^4-(pyridin-3-ylmethyl)cyclohexane-1,4-diamine] | +++ (+++ indicates maximal β-catenin or p53 stabilization at >2 μM)
Cn1ncc(-c2nc(N[C@H]3CC[C@H](NC(=O)c4cn[nH]c4)CC3)ncc2Cl)c1CC1CC1 [Compound A87, N-((1R,4R)-4-((5-chloro-4-(5-(cyclopropylmethyl)-1-methyl-1H-pyrazol-4-yl)pyrimidin-2-yl)amino)cyclohexyl)-1H-pyrazole-4-carboxamide] | + (+ indicates low, yet significant activation at a compound concentration of 6 μM)
Cn1ncc(-c2nc(NC3CCC(C)(N)CC3)ncc2Cl)c1CC1CC1 [Compound A30-1, (1R,4R)—N^1-(5-chloro-4-(5-(cyclopropylmethyl)-1-methyl-1H-pyrazol-4-yl)pyrimidin-2-yl)-4-methylcyclohexane-1,4-diamine] | ++++ (++++ indicates maximal activation of p53 and DDR at >0.5 μM)
Cc1[nH]ncc1CN[C@H]1CC[C@H](Nc2ncc(Cl)c(-c3cnn(C)c3CC3CC3)n2)CC1 [Compound A91, (1R,4R)—N^1-(5-chloro-4-(5-(cyclopropylmethyl)-1-methyl-1H-pyrazol-4-yl)pyrimidin-2-yl)-N^4-((5-methyl-1H-pyrazol-4-yl)methyl)cyclohexane-1,4-diamine] | +++ (+++ indicates maximal β-catenin or p53 stabilization at >2 μM)
Cn1ncc(-c2ccnc(N[C@H]3CC[C@H](N)CC3)n2)c1C(O)C1CC1 (stereo partly drawn) [Compound A58, (4-(2-(((1R,4R)-4-aminocyclohexyl)amino)pyrimidin-4-yl)-1-methyl-1H-pyrazol-5-yl)(cyclopropyl)methanol] | + (+ indicates low, yet significant activation at a compound concentration of 6 μM)
Cn1ncc(-c2nc(N[C@H]3CC[C@H](NCC(F)(F)F)CC3)ncc2Cl)c1CC1CC1 [Compound A94, (1R,4R)—N^1-(5-chloro-4-(5-(cyclopropylmethyl)-1-methyl-1H-pyrazol-4-yl)pyrimidin-2-yl)-N^4-(2,2,2-trifluoroethyl)cyclohexane-1,4-diamine] | + (+ indicates low, yet significant activation at a compound concentration of 6 μM)
Cn1ncc(-c2nc(NC3CCC(NCc4ccn[nH]4)CC3)ncc2Cl)c1CC1CC1 [Compound A82, (1R,4R)—N^1-((1H-pyrazol-3-yl)methyl)-N^4-(5-chloro-4-(5-(cyclopropylmethyl)-1-methyl-1H-pyrazol-4-yl)pyrimidin-2-yl)cyclohexane-1,4-diamine] | +++ (+++ indicates maximal β-catenin or p53 stabilization at >2 μM)
CC(C)n1ncc(-c2ccnc(N[C@H]3CC[C@H](N)CC3)n2)c1CC1CC1 [Compound A35, (1r, 4r)-N^1-(4-(5-(cyclopropylmethyl)-1-isopropyl-1H-pyrazol-4-yl)pyrimidin-2-yl)cyclohexane-1,4-diamine] | +++ (+++ indicates maximal β-catenin or p53 stabilization at >2 μM)
CC(C)n1ncc(-c2nc(N[C@H]3CC[C@H](N)CC3)ncc2Cl)c1CC1CC1 [Compound A59, (1R,4R)—N^1-(5-chloro-4-(5-(cyclopropylmethyl)-1-isopropyl-1H-pyrazol-4-yl)pyrimidin-2-yl)cyclohexane-1,4-diamine] | +++ (+++ indicates maximal β-catenin or p53 stabilization at >2 μM)
Cn1ncc(-c2nc(N[C@H]3CC[C@H](n4cccn4)CC3)ncc2Cl)c1CC1CC1 [Compound A64, N-((1R,4R)-4-(1H-pyrazol-1-yl)cyclohexyl)-5-chloro-4-(5-(cyclopropylmethyl)-1-methyl-1H-pyrazol-4-yl)pyrimidin-2-amine] | + (+ indicates low, yet significant activation at a compound concentration of 6 μM)
N[C@H]1CC[C@H](Nc2nccc(-c3cnn(C4COC4)c3CC3CC3)n2)CC1 [Compound A43, (1R, 4R)—N^1-(4-(5-(cyclopropylmethyl)-1-(oxetan-3-yl)-1H-pyrazol-4-yl)pyrimidin-2-yl)cyclohexane-1,4-diamine] | + (+ indicates low, yet significant activation at a compound concentration of 6 μM)
Cn1ncc(-c2nc(N[C@H]3CC[C@H](N(Cc4cn[nH]c4)CC(F)(F)F)CC3)ncc2Cl)c1CC1CC1 [Compound A95, (1R,4R)—N1-((1H-pyrazol-4-yl)methyl)-N4-(5-chloro-4-(5-(cyclopropylmethyl)-1-methyl-1H-pyrazol-4-yl)pyrimidin-2-yl)-N1-(2,2,2-trifluoroethyl)cyclohexane-1,4-diamine] | +++ (+++ indicates maximal β-catenin or p53 stabilization at >2 μM)
Cn1ncc(-c2ccnc(N[C@H]3CC[C@H](N4CCCC4)CC3)n2)c1CC1CC1 [Compound A49, 4-(5-(cyclopropylmethyl)-1-methyl-1H-pyrazol-4-yl)-N-((1R, 4R)-4-(pyrrolidin-1-yl)cyclohexyl)pyrimidin-2-amine] | + (+ indicates low, yet significant activation at a compound concentration of 6 μM)
Cn1ncc(-c2ccnc(N[C@H]3CC[C@H](N4CCC4)CC3)n2)c1CC1CC1 [Compound A50, N-((1R, 4R)-4-(azetidin-1-yl)cyclohexyl)-4-(5-(cyclopropylmethyl)-1-methyl-1H-pyrazol-4-yl)pyrimidin-2-amine] | +++ (+++ indicates maximal β-catenin or p53 stabilization at >2 μM)
Cn1ncc(-c2nc(NC3CCC(NCc4ccccc4)CC3)ncc2Cl)c1CC1CC1 [Compound A74, (1R,4R)—N^1-benzyl-N^4-(5-chloro-4-(5-(cyclopropylmethyl)-1-methyl-1H-pyrazol-4-yl)pyrimidin-2-yl)cyclohexane-1,4-diamine] | +++ (+++ indicates maximal β-catenin or p53 stabilization at >2 μM)

same assay, conditions: FIG. 1A

SMILES | concentration at which p53 stabilization starts / is significantly above non-treatment control | concentration of maximal p53 stabilization | p53 stabilization
CC(C)n1ncc(-c2ccnc(N[C@H]3CC[C@H](N)CC3)n2)c1CC1CC1 [Compound A35, (1r, 4r)-N^1-(4-(5-(cyclopropylmethyl)-1-isopropyl-1H-pyrazol-4-yl)pyrimidin-2-yl)cyclohexane-1,4-diamine] | 0.2 µM | 1 µM | –
N[C@H]1CC[C@H](Nc2nccc(-c3cnn(C4COC4)c3CC3CC3)n2)CC1 [Compound A43, (1R, 4R)—N^1-(4-(5-(cyclopropylmethyl)-1-(oxetan-3-yl)-1H-pyrazol-4-yl)pyrimidin-2-yl)cyclohexane-1,4-diamine] | 6 µM | – | no activity
